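Results reflect a 48-hour exposure of cells in 96-well plates to compound at five concentrations. TGI marks complete inhibition of growth.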
Key:
Test in all cases: inhibition of tumour cell growth, NCI panel, 48 h
TK-10 renal = test system: TK-10 renal
SF-295 CNS = test system: SF-295 CNS
DMS 273 small cell lung = test system: DMS 273 small cell lung
CAKI-1 renal = test system: CAKI-1 renal
DLD-1 colon = test system: DLD-1 colon
NCI-H226 lung = test system: NCI-H226 lung
SF-268 CNS = test system: SF-268 CNS
K-562 leukemia = test system: K-562 leukemia
SNB-75 CNS = test system: SNB-75 CNS
SNB-19 CNS = test system: SNB-19 CNS

Measured: TGI

CC(=O)n1nnc2ccc([N+](=O)[O-])cc21
> 100 µM: TK-10 renal | SF-295 CNS | DMS 273 small cell lung | CAKI-1 renal | DLD-1 colon | NCI-H226 lung | SF-268 CNS | K-562 leukemia | SNB-75 CNS | SNB-19 CNS

CC12CCCC(C#N)(C1)OC2=O (stereo not given)
> 100 µM: TK-10 renal | SF-295 CNS | DMS 273 small cell lung | CAKI-1 renal | DLD-1 colon | NCI-H226 lung | SF-268 CNS | K-562 leukemia | SNB-75 CNS | SNB-19 CNS

CCc1cccc(C)c1N1C(=O)C(=O)C(c2nc3ccccc3o2)/C(=N/NC(=S)NN)C1=O (stereo not given)
> 100 µM: TK-10 renal | SF-295 CNS | DMS 273 small cell lung | CAKI-1 renal | DLD-1 colon | NCI-H226 lung | SF-268 CNS | K-562 leukemia | SNB-75 CNS | SNB-19 CNS

COC(=O)C(=O)C(C#N)c1cccc(Cl)c1 (stereo not given)
> 100 µM: TK-10 renal | SF-295 CNS | DMS 273 small cell lung | CAKI-1 renal | DLD-1 colon | NCI-H226 lung | SF-268 CNS | K-562 leukemia | SNB-75 CNS | SNB-19 CNS

CC12CC/C(=N/NC(N)=O)C3C1CCCC32
> 100 µM: TK-10 renal | SF-295 CNS | DMS 273 small cell lung | CAKI-1 renal | DLD-1 colon | NCI-H226 lung | SF-268 CNS | K-562 leukemia | SNB-75 CNS | SNB-19 CNS

From PubChem BioAssay (NCI)
